Assay results: patent publication US20170275269A1, “BENZYL SUBSTITUTED INDAZOLES AS BUB1 KINASE INHIBITORS” (Bayer Pharma Aktiengesellschaft, priority 2014, published 2017)
Like-named read-outs stand apart in the source and are kept apart here.

Legend:
[1] = biological target: T1, catalytic domain of human Bub1 (amino acids 704-1085) (Homo sapiens, UniProt O43683); test: Bub1 kinase assay (TR-FRET); type: biochemical
T1 construct: catalytic domain of human Bub1 (amino acids 704-1085); His6 (N); made in house; host or cells: Hi5 insect cells
Procedure: To this end, 100-fold concentrated compound solutions (in DMSO) were previously prepared by serial dilution (1:3.4) of 2 mM stocks in a clear low volume 384-well source microtiter plate (Greiner Bio-One, Frickenhausen, Germany), from which 50 nL of compounds were transferred into a black low volume test microtiter plate from the same supplier. […] The resulting mixture (5 μL final volume) was incubated at 22° C. during 60 min., and the reaction was stopped by the addition of 5 μL of an aqueous EDTA-solution (50 mM EDTA, in 100 mM HEPES pH 7.5 and 0.2% (w/v) bovine serum albumin) which also contained the TR-FRET detection reagents (0.2 μM streptavidin-XL665 [Cisbio Bioassays, Codolet, France] and 1 nM anti-phosho-Serine antibody [Merck Millipore, cat. #35-001] and 0.4 nM LANCE EU-W1024 labeled anti-mouse IgG antibody [Perkin-Elmer, product no. AD0077, alternatively a Terbium-cryptate-labeled anti-mouse IgG antibody from Cisbio Bioassays can be used]). The stopped reaction mixture was further incubated 1 h at 22° C. in order to allow the formation of complexes between peptides and detection reagents. Subsequently, the amount of product was evaluated by measurement of the resonance energy transfer from the Eu-chelate-antibody complex recognizing the Phosphoserine residue to the streptavidin-XL665 bound to the biotin moiety of the peptide. […] IC50 values were calculated by fitting the normalized inhibition data to a 4-parameter logistic equation (Minimum, Maximum, IC50, Hill; Y=Max+(Min−Max)/(1+(X/IC50)Hill)).

[2] = tested on: HeLa human cervical cancer cell line; test: Proliferation assay (HeLa cell line)
Procedure: Cultivated tumor cells (cells were ordered from ATCC) were plated at a density of 3000 cells/well in a 96-well multititer plate in 200 μL of growth medium supplemented 10% fetal calf serum. After 24 hours, the cells of one plate (zero-point plate) were stained with crystal violet (see below), while the medium of the other plates was replaced by fresh culture medium (200 μL), to which the test substances were added in various concentrations (0 μM, as well as in the range of 0.001-10 μM; the final concentration of the solvent dimethyl sulfoxide was 0.5%). The cells were incubated for 4 days in the presence of test substances. Cell proliferation was determined by staining the cells with crystal violet: the cells were fixed by adding 20 μL/measuring point of an 11% glutaric aldehyde solution for 15 minutes at room temperature. After three washing cycles of the fixed cells with water, the plates were dried at room temperature. The cells were stained by adding 100 μL/measuring point of a 0.1% crystal violet solution (pH 3.0). After three washing cycles of the stained cells with water, the plates were dried at room temperature. The dye was dissolved by adding 100 μL/measuring point of a 10% acetic acid solution. Absorption was determined by photometry at a wavelength of 595 nm. The change of cell number, in percent, was calculated by normalization of the measured values to the absorption values of the zero-point plate (=0%) and the absorption of the untreated (0 μm) cells (=100%). The IC50 values were determined by means of a 4 parameter fit.

[3] = tested on: HeLa human cervical tumor cells; test: Proliferation Assay (HeLa+Paclitaxel); details: read-out: Biological Assay 3.0: Proliferation Assay (HeLa + Paclitaxel):, 3 nM paclitaxel, 92 hours with test substance
Procedure: Proliferation Assay (HeLa+Paclitaxel):
Cultivated HeLa human cervical tumor cells (DSMZ ACC-57) were plated at a density of 3000 cells/well in a 96-well multititer plate in 200 μL of growth medium supplemented 10% fetal calf serum. After 24 hours, the cells of one plate (zero-point plate) were stained with crystal violet (see below). The medium of the other plates was supplemented with 3 nM of paclitaxel (Sigma-Aldrich) and the cells were incubated at 37° C. After 4 hours the test substances were added in various concentrations (0 μM, as well as in the range of 0.001-10 μM; the final concentration of the solvent dimethyl sulfoxide was adjusted to 0.1%) using a Hewlett-Packard HP D300 Digital Dispenser. The cells were incubated for another 92 hours at 37° C. in the presence of test substances. Cell proliferation was determined by staining the cells with crystal violet: the cells were fixed by adding 20 μL/measuring point of an 11% glutaric aldehyde solution for 15 minutes at room temperature. After three washing cycles of the fixed cells with water, the plates were dried at room temperature. The cells were stained by adding 100 μL/measuring point of a 0.1% crystal violet solution (pH 3.0). After three washing cycles of the stained cells with water, the plates were dried at room temperature. The dye was dissolved by adding 100 μL/measuring point of a 10% acetic acid solution. Absorption was determined by photometry at a wavelength of 595 nm. The change of cell number, in percent, was calculated by normalization of the measured values to the absorption values of the zero-point plate (=0%) and the absorption of the untreated (0 μm) cells (=100%). The IC50 values were determined by means of a 4 parameter fit.

[4] = 10 μM ATP, 1 μM peptide substrate, read-out: Biological Assay 1: Bub1 kinase assay median IC50
[5] = Homo sapiens, 96 h, read-out: Biological Assay 2: Proliferation assay (HeLa cell line) median IC50
[6] = Homo sapiens, 96 h, read-out: Biological Assay 2: Proliferation assay (HeLa cell line) median IC50, HeLa, 4 days incubation, crystal violet

T1 sequence (O43683 704-1085): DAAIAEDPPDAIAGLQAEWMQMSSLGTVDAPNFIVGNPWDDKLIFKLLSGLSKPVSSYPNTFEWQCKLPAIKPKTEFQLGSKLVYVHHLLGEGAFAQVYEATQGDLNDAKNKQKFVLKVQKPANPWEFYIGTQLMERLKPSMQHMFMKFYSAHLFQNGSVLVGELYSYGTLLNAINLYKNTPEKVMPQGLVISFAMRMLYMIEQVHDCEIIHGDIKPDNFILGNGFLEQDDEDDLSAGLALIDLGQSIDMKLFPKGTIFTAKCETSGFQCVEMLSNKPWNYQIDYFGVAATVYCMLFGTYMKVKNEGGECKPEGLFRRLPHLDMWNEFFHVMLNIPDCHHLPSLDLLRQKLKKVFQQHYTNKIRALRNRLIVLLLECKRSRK

Row | SMILES | IC50 [1, 4] [nM] | IC50 [2, 5] [nM] | IC50 [3] [nM] | IC50 ([2]; read-out: Biological Assay 2: Proliferation assay (HeLa cell line) median IC50, 4 days incubation, crystal violet) [nM] | IC50 [1] [nM] | IC50 [2, 6] [nM]
1 | CN1CCN(CCCOc2cnc(-c3nn(Cc4c(F)cc(OCC5CC5)cc4F)c4ccccc34)nc2Nc2ccncc2Cl)CC1 [Example 2-1-1, N-(3-chloropyridin-4-yl)-2-{1-[4-(cyclopropylmethoxy)-2,6-difluorobenzyl]-1H-indazol-3-yl}-5-[3-(4-methylpiperazin-1-yl)propoxy]pyrimidin-4-amine] | 10 | 1100 | 69 |  |  | 
2 | CCOc1cc(F)c(Cn2nc(-c3ncc(OCCCCN4CCC(F)(F)CC4)c(Nc4cc(C)ncc4C)n3)c3ccccc32)c(F)c1 [Example 2-3-5, 5-[4-(4,4-difluoropiperidin-1-yl)butoxy]-N-(2,5-dimethylpyridin-4-yl)-2-[1-(4-ethoxy-2,6-difluorobenzyl)-1H-indazol-3-yl]pyrimidin-4-amine] |  |  | 31 |  | 230 | 6800
3 | CCOc1cc(F)c(Cn2nc(-c3ncc(OCCCCN4CC(F)(F)C4)c(Nc4ccncc4Cl)n3)c3ccccc32)c(F)c1 [Example 2-2-1, N-(3-chloropyridin-4-yl)-5-[4-(3,3-difluoroazetidin-1-yl)butoxy]-2-[1-(4-ethoxy-2,6-difluorobenzyl)-1H-indazol-3-yl]pyrimidin-4-amine] |  |  | 140 |  | 19 | 9000
4 | CCOc1cc(F)c(Cn2nc(-c3ncc(OCCCCN4CC(F)C4)c(Nc4cc(C)ncc4C)n3)c3ccccc32)c(F)c1 [Example 2-3-1, N-(2,5-dimethylpyridin-4-yl)-2-[1-(4-ethoxy-2,6-difluorobenzyl)-1H-indazol-3-yl]-5-[4-(3-fluoroazetidin-1-yl)butoxy]pyrimidin-4-amine] |  |  | 33 |  | 39 | 1400
5 | CCOc1cc(F)c(Cn2nc(-c3ncc(OCCCCN4CC(F)(F)C4)c(Nc4ccnc(C)n4)n3)c3ccccc32)c(F)c1 [Example 2-3-2, 5-[4-(3,3-difluoroazetidin-1-yl)butoxy]-2-[1-(4-ethoxy-2,6-difluorobenzyl)-1H-indazol-3-yl]-N-(2-methylpyrimidin-4-yl)pyrimidin-4-amine] |  |  | 26 |  | 34 | 9300
6 | Fc1cc(OCC2CC2)cc(F)c1Cn1nc(-c2ncc(OCCCN3CCOCC3)c(Nc3ccncc3Cl)n2)c2ccccc21 [Example 2-1-2, N-(3-chloropyridin-4-yl)-2-{1-[4-(cyclopropylmethoxy)-2,6-difluorobenzyl]-1H-indazol-3-yl}-5-[3-(morpholin-4-yl)propoxy]pyrimidin-4-amine] | 50 | 5800 | 760 |  |  | 
7 | CCOc1cc(F)c(Cn2nc(-c3ncc(OCCCCN4CC(F)C4)c(Nc4ccnc(C)n4)n3)c3ccccc32)c(F)c1 [Example 2-3-3, 2-[1-(4-ethoxy-2,6-difluorobenzyl)-1H-indazol-3-yl]-5-[4-(3-fluoroazetidin-1-yl)butoxy]-N-(2-methylpyrimidin-4-yl)pyrimidin-4-amine] |  |  | 23 |  | 12 | 3700
8 | CCOc1cc(F)c(Cn2nc(-c3ncc(OCCCN4CCOCC4)c(Nc4ccnc(NC(C)=O)c4)n3)c3ccccc32)c(F)c1 [Example 2-1-3, N-[4-({2-[1-(4-ethoxy-2,6-difluorobenzyl)-1H-indazol-3-yl]-5-[3-(morpholin-4-yl)-propoxy]pyrimidin-4-yl}amino)pyridin-2-yl]acetamide] | 6.8 | 3400 | 78 |  |  | 
9 | CCOc1cc(F)c(Cn2nc(-c3ncc(OCCCCN4CCC(F)(F)CC4)c(Nc4ccnc(C)n4)n3)c3ccccc32)c(F)c1 [Example 2-3-4, 5-[4-(4,4-difluoropiperidin-1-yl)butoxy]-2-[1-(4-ethoxy-2,6-difluorobenzyl)-1H-indazol-3-yl]-N-(2-methylpyrimidin-4-yl)pyrimidin-4-amine] |  |  | 51 |  | 49 | > 10000

Second part, led by results:

Row | IC50 [1, 4] [nM] | IC50 [2, 5] [nM] | IC50 [3] [nM] | IC50 ([2]; read-out: Biological Assay 2: Proliferation assay (HeLa cell line) median IC50, 4 days incubation, crystal violet) [nM] | SMILES | IC50 [1] [nM] | IC50 [2, 6] [nM]
10 | 9.6 | 1100 | 860 |  | CCOc1cc(F)c(Cn2nc(-c3ncc(OCCCN4CCN(C)CC4)c(Nc4ccncn4)n3)c3ccccc32)c(F)c1 [Example 2-1-6, 2-[1-(4-ethoxy-2,6-difluorobenzyl)-1H-indazol-3-yl]-5-[3-(4-methylpiperazin-1-yl)propoxy]-N-(pyrimidin-4-yl)pyrimidin-4-amine] |  | 
11 | 370 |  |  |  | Cc1cc(Nc2nc(-c3nn(Cc4c(F)cc(OCC5CC5)cc4F)c4ccccc34)ncc2OCCCN2CCOCC2)ccn1 [Example 2-1-11, 2-{1-[4-(cyclopropylmethoxy)-2,6-difluorobenzyl]-1H-indazol-3-yl}-N-(2-methylpyridin-4-yl)-5-[3-(morpholin-4-yl)propoxy]pyrimidin-4-amine] |  | 
12 |  |  | 260 | > 10000 | CCOc1cc(F)c(Cn2nc(-c3ncc(OCCN4CCOCC4)c(Nc4ccncc4)n3)c3ccccc32)c(F)c1 [Example 3-1-1, 2-[1-(4-ethoxy-2,6-difluorobenzyl)-1H-indazol-3-yl]-5-[2-(morpholin-4-yl)ethoxy]-N-(pyridin-4-yl)pyrimidin-4-amine, reference compound] |  | 9000
13 | 28 | 1200 | 370 |  | CCOc1cc(F)c(Cn2nc(-c3ncc(OCCCN4CCN(C)CC4)c(Nc4ccnc(C)c4)n3)c3ccccc32)c(F)c1 [Example 2-1-8, 2-[1-(4-ethoxy-2,6-difluorobenzyl)-1H-indazol-3-yl]-5-[3-(4-methylpiperazin-1-yl)propoxy]-N-(2-methylpyridin-4-yl)pyrimidin-4-amine] |  | 
14 | 4.6 | 2000 | 160 |  | CCOc1cc(F)c(Cn2nc(-c3ncc(OCCCN4CCN(C)CC4)c(Nc4ccnc(NC(C)=O)c4)n3)c3ccccc32)c(F)c1 [Example 2-1-4, N-[4-({2-[1-(4-ethoxy-2,6-difluorobenzyl)-1H-indazol-3-yl]-5-[3-(4-methylpiperazin-1-yl)propoxy]pyrimidin-4-yl}amino)pyridin-2-yl]acetamide] |  | 
15 | 19 | 3700 | 490 |  | Fc1cc(OCC(F)F)cc(F)c1Cn1nc(-c2ncc(OCCCN3CCOCC3)c(Nc3ccncn3)n2)c2ccccc21 [Example 2-1-9, 2-{1-[4-(2,2-difluoroethoxy)-2,6-difluorobenzyl]-1H-indazol-3-yl}-5-[3-(morpholin-4-yl)propoxy]-N-(pyrimidin-4-yl)pyrimidin-4-amine] |  | 
16 |  |  | 140 |  | CCOc1cc(F)c(Cn2nc(-c3ncc(OC[C@H](C)NCC(F)(F)F)c(Nc4ccnc(C)n4)n3)c3ccccc32)c(F)c1 [Example 2-4-1, 2-[1-(4-ethoxy-2,6-difluorobenzyl)-1H-indazol-3-yl]-N-(2-methylpyrimidin-4-yl)-5-({(2S)-2-[(2,2,2-trifluoroethyl)amino]propyl}oxy)pyrimidin-4-amine] | 11 | 880
17 |  |  | 440 |  | CCOc1cc(F)c(Cn2nc(-c3ncc(OCCCN4CCN(CC(F)(F)F)CC4)c(Nc4ccnc(NC(C)=O)c4)n3)c3ccccc32)c(F)c1 [Example 2-1-5, N-{4-[(2-[1-(4-ethoxy-2,6-difluorobenzyl)-1H-indazol-3-yl]-5-{3-[4-(2,2,2-tri-fluoroethyl)piperazin-1-yl]propoxy}pyrimidin-4-yl)amino]pyridin-2-yl}acetamide] | 23 | > 10000
18 | 250 | 550 | 160 |  | CCOc1cc(F)c(Cn2nc(-c3ncc(OCCCN4CCN(C)CC4)c(Nc4cc(C)ncc4C)n3)c3ccccc32)c(F)c1 [Example 2-1-10, N-(2,5-dimethylpyridin-4-yl)-2-[1-(4-ethoxy-2,6-difluorobenzyl)-1H-indazol-3-yl]-5-[3-(4-methylpiperazin-1-yl)propoxy]pyrimidin-4-amine] |  | 
19 | 12 | 3700 | 430 |  | CCOc1cc(F)c(Cn2nc(-c3ncc(OCCCN4CCN(C)CC4)c(Nc4ccnc(C)n4)n3)c3ccccc32)c(F)c1 [Example 2-1-7, 2-[1-(4-ethoxy-2,6-difluorobenzyl)-1H-indazol-3-yl]-5-[3-(4-methylpiperazin-1-yl)propoxy]-N-(2-methylpyrimidin-4-yl)pyrimidin-4-amine] |  | 
